The test relates to psoriasis. Nature of the test: Case studies: clinical treatment of resistant psoriasis. It is filed as in vivo, human. As to conditions: Case No. 9; Methotrexate 5-10 mg per week from April 2001, Psorex stopped; summer to August 2001. The text has this: The following case studies are presented to show results from clinical trials of the present invention on resistant cases of psoriasis, eczema and seborrhea.
A combination of Psorizide Ultra® and Psorex® was employed in some of these case studies. In others, a combination of Psorizide Ultra® and Fumaric Acid 1× was used. Psorizide Ultra® is a natural mineral homeopathic medication commercially available from Applicant's company, i.e. LOMA LUX Laboratories, 5801 E. 41st Street, Suite 200, Tulsa, Okla. 74135. This prescription drug includes active ingredients of nickel sulfate and potassium bromide.
Psorex® is a scientifically designed supplement containing reagent grade fumaric acid esters. This supplement is commercially available from Ecological Formulas at 1-800-888-4585. Each Psorex® capsule contains 120 mg fumaric acid ester.
Fumaric Acid 1×300 mg tablets are commercially available from B.H.I., 11600 Cochiti Road SE, Albuquerque, N.Mex. 87123-3376. Each Fumaric Acid 1× tablet contains approximately 30 mg of fumaric acid.
The patient is a person with a ten year history of psoriasis of the anogenital region. They had been treated with numerous topical lotions with only limited results. More recently they also developed left knee involvement and flaring of all disease sites due to surgery. They presented November 2000 complaining of itching. […]

Regarding `CN(Cc1cnc2nc(N)nc(N)c2n1)c1ccc(C(=O)N[C@@H](CCC(=O)O)C(=O)O)cc1` [Methotrexate®, Methotrexate], the “clinical condition of plaque psoriasis” value is reported as “doing very well through the summer, but by August 2001 the psoriasis was worse”.

Values taken from patent publication US6613800B1, “Method and compositions for treating psoriasis, eczema, seborrhea and arthritis” (priority 2001, dated 2003).
